In patent publication US20260356819A1, “OXOISOINDOLINYL-SUBSTITUTED […] DERIVATIVE AND USE THEREOF” (GLUETACS THERAPEUTICS (SHANGHAI) CO., LTD., priority 2023, published 2026):

Key:
Type in all cases: cell-based
Conditions in all cases: compounds at 50 nM and 500 nM
WEE1 = molecular target: T1, WEE1 (Homo sapiens, UniProt P30291+Q96SW2); experiment: Western blot degradation of WEE1 in hPBMCs (24 h)
T1 construct: The supernatant was aspirated as the extracted total cell protein; endogenous in cells; host or cells: human peripheral blood mononuclear cells (hPBMCs)
T1 sequence (P30291 whole entry): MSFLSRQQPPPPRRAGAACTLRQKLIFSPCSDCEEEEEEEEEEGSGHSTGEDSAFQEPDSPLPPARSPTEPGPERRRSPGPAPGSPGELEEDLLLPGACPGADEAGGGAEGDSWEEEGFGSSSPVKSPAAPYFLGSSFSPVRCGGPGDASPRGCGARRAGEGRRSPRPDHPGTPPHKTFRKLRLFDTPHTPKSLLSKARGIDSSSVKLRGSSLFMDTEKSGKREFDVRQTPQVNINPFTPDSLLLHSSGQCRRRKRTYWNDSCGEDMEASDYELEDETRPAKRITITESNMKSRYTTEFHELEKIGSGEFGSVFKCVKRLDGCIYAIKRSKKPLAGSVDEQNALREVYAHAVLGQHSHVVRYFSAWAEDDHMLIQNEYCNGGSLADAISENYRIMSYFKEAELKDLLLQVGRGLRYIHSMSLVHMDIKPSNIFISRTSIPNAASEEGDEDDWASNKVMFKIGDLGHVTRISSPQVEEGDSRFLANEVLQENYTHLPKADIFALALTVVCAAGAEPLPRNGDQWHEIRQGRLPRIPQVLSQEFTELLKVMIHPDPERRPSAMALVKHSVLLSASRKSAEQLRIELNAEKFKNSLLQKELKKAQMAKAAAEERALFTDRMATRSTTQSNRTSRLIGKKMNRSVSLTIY
T1 sequence (Q96SW2 whole entry): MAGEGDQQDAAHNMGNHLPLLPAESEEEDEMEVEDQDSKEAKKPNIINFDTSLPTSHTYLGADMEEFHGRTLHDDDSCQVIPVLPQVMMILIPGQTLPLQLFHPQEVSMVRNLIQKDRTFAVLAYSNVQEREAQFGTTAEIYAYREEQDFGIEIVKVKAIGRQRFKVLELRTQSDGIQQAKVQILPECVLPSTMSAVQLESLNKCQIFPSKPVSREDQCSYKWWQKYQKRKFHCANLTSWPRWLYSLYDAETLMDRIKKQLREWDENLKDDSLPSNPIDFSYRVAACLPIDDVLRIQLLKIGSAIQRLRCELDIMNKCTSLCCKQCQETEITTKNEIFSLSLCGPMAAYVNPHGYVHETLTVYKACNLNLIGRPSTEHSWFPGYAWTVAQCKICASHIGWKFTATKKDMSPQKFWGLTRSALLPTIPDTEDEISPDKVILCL
T1 sequence (Q16531 whole entry partner): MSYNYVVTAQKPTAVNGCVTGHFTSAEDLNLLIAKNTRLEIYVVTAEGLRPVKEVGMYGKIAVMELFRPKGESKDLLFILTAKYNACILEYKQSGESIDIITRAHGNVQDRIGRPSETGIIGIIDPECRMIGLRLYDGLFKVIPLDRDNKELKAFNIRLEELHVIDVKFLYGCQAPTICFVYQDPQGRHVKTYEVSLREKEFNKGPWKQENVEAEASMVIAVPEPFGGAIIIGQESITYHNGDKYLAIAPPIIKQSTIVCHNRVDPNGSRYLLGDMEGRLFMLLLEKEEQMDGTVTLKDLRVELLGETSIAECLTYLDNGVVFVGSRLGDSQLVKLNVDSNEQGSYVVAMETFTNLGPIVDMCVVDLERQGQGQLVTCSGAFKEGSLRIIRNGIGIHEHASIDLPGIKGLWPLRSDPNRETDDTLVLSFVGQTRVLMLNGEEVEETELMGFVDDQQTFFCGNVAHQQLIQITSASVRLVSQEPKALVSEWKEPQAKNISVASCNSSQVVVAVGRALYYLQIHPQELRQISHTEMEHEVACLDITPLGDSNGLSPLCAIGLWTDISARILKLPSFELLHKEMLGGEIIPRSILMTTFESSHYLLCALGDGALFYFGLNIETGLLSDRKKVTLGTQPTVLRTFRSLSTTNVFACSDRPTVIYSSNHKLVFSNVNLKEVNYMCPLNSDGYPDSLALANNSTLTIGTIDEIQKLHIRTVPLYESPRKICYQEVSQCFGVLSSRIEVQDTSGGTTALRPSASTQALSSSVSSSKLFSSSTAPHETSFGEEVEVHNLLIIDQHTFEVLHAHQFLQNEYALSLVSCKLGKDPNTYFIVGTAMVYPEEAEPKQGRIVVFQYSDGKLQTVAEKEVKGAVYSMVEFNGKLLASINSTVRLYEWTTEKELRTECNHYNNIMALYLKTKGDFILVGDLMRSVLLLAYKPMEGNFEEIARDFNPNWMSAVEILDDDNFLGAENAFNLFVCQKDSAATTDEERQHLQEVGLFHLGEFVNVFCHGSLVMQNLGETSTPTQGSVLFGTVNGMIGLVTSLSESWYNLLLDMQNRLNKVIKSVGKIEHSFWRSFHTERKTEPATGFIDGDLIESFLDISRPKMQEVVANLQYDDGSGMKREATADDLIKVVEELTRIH
How it was run: (§1)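 Thawed human PBMCs, 1×10^6 cells/mL; cpd 50 nM or 500 nM, 24 h; RIPA lysis, BCA, SDS-PAGE, NC transfer, immunoblot. Readout: grayscale/internal control → % remaining; degradation = 1 − remaining.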

IKZF1 = molecular target: T2, IKZF1 (Homo sapiens, UniProt Q13422+Q96SW2); experiment: Western blot degradation of IKZF1 in hPBMCs (24 h)
T2 construct: The supernatant was aspirated as the extracted total cell protein; endogenous in cells; host or cells: human peripheral blood mononuclear cells (hPBMCs)
T2 sequence (Q13422 whole entry): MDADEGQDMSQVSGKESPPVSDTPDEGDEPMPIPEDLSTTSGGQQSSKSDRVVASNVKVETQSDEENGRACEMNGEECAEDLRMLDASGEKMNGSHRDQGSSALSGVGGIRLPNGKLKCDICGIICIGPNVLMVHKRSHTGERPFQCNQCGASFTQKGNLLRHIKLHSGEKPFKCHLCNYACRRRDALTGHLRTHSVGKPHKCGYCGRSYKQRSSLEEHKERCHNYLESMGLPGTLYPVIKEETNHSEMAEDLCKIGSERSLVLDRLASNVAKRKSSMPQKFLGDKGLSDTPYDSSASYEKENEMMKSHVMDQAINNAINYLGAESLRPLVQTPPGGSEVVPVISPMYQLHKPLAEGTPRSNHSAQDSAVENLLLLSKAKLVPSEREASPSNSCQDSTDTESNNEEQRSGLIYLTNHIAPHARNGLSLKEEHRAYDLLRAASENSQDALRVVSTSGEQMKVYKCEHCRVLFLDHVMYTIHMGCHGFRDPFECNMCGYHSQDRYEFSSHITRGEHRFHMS
T2 sequence (Q96SW2 whole entry): as the sequence (Q96SW2 whole entry) above
T2 sequence (Q16531 whole entry partner): as the sequence (Q16531 whole entry partner) above
How it was run: as §1

IKZF2 = molecular target: T3, IKZF2 (Homo sapiens, UniProt Q96SW2+Q9UKS7); experiment: Western blot degradation of IKZF2 in hPBMCs (24 h)
T3 construct: The supernatant was aspirated as the extracted total cell protein; endogenous in cells; host or cells: human peripheral blood mononuclear cells (hPBMCs)
T3 sequence (Q9UKS7 whole entry): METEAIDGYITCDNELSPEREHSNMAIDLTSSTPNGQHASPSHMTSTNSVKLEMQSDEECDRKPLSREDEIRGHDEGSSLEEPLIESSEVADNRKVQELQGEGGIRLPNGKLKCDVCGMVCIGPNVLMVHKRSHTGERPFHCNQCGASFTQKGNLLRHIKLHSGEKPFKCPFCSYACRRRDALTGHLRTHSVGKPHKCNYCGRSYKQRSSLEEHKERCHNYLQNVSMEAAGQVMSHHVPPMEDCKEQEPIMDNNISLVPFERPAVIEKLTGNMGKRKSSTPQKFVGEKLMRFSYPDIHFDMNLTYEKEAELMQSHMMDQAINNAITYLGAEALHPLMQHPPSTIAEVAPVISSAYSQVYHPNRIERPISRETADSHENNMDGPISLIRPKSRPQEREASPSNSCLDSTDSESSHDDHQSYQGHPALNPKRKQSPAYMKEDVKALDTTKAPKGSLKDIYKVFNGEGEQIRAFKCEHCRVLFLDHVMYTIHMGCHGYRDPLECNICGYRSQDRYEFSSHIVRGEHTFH
T3 sequence (Q96SW2 whole entry): as the sequence (Q96SW2 whole entry) above
T3 sequence (Q16531 whole entry partner): as the sequence (Q16531 whole entry partner) above
How it was run: as §1

IKZF3 = molecular target: T4, IKZF3 (Homo sapiens, UniProt Q96SW2+Q9UKT9); experiment: Western blot degradation of IKZF3 in hPBMCs (24 h)
T4 construct: The supernatant was aspirated as the extracted total cell protein; endogenous in cells; host or cells: human peripheral blood mononuclear cells (hPBMCs)
How it was run: as §1

CK1α = molecular target: T5, CK1α (Homo sapiens, UniProt P48729+Q96SW2); experiment: Western blot degradation of CK1α in hPBMCs (24 h)
T5 construct: The supernatant was aspirated as the extracted total cell protein; endogenous in cells; host or cells: human peripheral blood mononuclear cells (hPBMCs)
T5 sequence (P48729 whole entry): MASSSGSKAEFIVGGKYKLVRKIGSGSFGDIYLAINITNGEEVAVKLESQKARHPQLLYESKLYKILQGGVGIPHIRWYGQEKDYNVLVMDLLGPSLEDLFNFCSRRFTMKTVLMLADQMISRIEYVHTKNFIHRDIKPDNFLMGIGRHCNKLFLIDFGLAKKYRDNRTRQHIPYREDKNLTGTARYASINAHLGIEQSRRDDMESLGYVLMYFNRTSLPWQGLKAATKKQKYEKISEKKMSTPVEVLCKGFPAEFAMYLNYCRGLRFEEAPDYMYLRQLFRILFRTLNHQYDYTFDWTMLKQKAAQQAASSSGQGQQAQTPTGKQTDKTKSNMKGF
T5 sequence (Q96SW2 whole entry): as the sequence (Q96SW2 whole entry) above
T5 sequence (Q16531 whole entry partner): as the sequence (Q16531 whole entry partner) above
How it was run: as §1

GSPT1 = molecular target: T6, GSPT1 (Homo sapiens, UniProt P15170+Q96SW2); experiment: Western blot degradation of GSPT1 in hPBMCs (24 h)
T6 construct: The supernatant was aspirated as the extracted total cell protein; endogenous in cells; host or cells: human peripheral blood mononuclear cells (hPBMCs)
T6 sequence (P15170 whole entry): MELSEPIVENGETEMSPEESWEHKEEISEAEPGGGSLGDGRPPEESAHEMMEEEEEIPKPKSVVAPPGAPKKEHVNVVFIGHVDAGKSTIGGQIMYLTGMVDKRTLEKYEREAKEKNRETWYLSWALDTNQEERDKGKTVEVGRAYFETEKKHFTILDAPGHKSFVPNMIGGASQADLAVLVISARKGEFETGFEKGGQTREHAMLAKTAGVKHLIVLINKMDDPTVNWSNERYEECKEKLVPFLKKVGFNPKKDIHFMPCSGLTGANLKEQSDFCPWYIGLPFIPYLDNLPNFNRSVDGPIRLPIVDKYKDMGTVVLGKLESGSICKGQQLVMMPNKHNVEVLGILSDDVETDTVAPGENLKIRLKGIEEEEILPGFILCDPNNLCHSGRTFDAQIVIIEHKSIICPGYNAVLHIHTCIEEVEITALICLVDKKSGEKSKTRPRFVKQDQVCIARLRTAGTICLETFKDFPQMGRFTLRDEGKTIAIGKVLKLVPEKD
T6 sequence (Q96SW2 whole entry): as the sequence (Q96SW2 whole entry) above
T6 sequence (Q16531 whole entry partner): as the sequence (Q16531 whole entry partner) above
How it was run: as §1

SMILES: O=C1CCN(N2Cc3cc(CN4CCN(c5ccnc(Cl)c5Cl)CC4)ccc3C2=O)C(=O)N1 [GT-07169, 1-(5-((4-(2,3-dichloropyridin-4-yl)piperazin-1-yl)methyl)-1-oxoisoindolin-2-yl)dihydropyrimidine-2,4(1H,3H)-dione]
- WEE1 substrate protein remaining % (WEE1): A (0% ≤ substrate protein remaining % ≤80%)
- IKZF1 substrate protein remaining % (IKZF1): B (80%< substrate protein remaining % ≤100%)
- IKZF2 substrate protein remaining % (IKZF2): B (80%< substrate protein remaining % ≤100%)
- IKZF3 substrate protein remaining % (IKZF3): B (80%< substrate protein remaining % ≤100%)
- CK1α substrate protein remaining % (CK1α): B (80%< substrate protein remaining % ≤100%)
- GSPT1 substrate protein remaining % (GSPT1): B (80%< substrate protein remaining % ≤100%)

SMILES: O=C1CCN(N2Cc3cc(CN4CCN(c5c(Cl)cncc5Br)CC4)ccc3C2=O)C(=O)N1 [GT-07170, 1-(5-((4-(3-bromo-5-chloropyridin-4-yl)piperazin-1-yl)methyl)-1-oxoisoindolin-2-yl)dihydropyrimidine-2,4(1H,3H)-dione]
- WEE1 substrate protein remaining % (WEE1): A (0% ≤ substrate protein remaining % ≤80%)
- IKZF1 substrate protein remaining % (IKZF1): A (0% ≤ substrate protein remaining % ≤80%)
- IKZF2 substrate protein remaining % (IKZF2): B (80%< substrate protein remaining % ≤100%)
- IKZF3 substrate protein remaining % (IKZF3): B (80%< substrate protein remaining % ≤100%)
- CK1α substrate protein remaining % (CK1α): B (80%< substrate protein remaining % ≤100%)
- GSPT1 substrate protein remaining % (GSPT1): B (80%< substrate protein remaining % ≤100%)

SMILES: O=C1CCN(N2Cc3cc(CN4CCN(c5c(F)cncc5Cl)CC4)ccc3C2=O)C(=O)N1 [GT-07171, 1-(5-((4-(3-chloro-5-fluoropyridin-4-yl)piperazin-1-yl)methyl)-1-oxoisoindolin-2-yl)dihydropyrimidine-2,4(1H,3H)-dione]
- WEE1 substrate protein remaining % (WEE1): A (0% ≤ substrate protein remaining % ≤80%)
- IKZF1 substrate protein remaining % (IKZF1): B (80%< substrate protein remaining % ≤100%)
- IKZF2 substrate protein remaining % (IKZF2): B (80%< substrate protein remaining % ≤100%)
- IKZF3 substrate protein remaining % (IKZF3): B (80%< substrate protein remaining % ≤100%)
- CK1α substrate protein remaining % (CK1α): B (80%< substrate protein remaining % ≤100%)
- GSPT1 substrate protein remaining % (GSPT1): B (80%< substrate protein remaining % ≤100%)

SMILES: O=C1CCN(N2C(=O)c3ccc(CN4CCN(c5ncccn5)CC4)cc3C2=O)C(=O)N1 [GT-07285, 2-(2,4-dioxotetrahydropyrimidin-1(2H)-yl)-5-((4-(pyrimidin-2-yl)piperazin-1-yl)methyl)isoindoline-1,3-dione]
- WEE1 substrate protein remaining % (WEE1): A (0% ≤ substrate protein remaining % ≤80%)
- IKZF1 substrate protein remaining % (IKZF1): A (0% ≤ substrate protein remaining % ≤80%)
- IKZF2 substrate protein remaining % (IKZF2): B (80%< substrate protein remaining % ≤100%)
- IKZF3 substrate protein remaining % (IKZF3): B (80%< substrate protein remaining % ≤100%)
- CK1α substrate protein remaining % (CK1α): B (80%< substrate protein remaining % ≤100%)
- GSPT1 substrate protein remaining % (GSPT1): B (80%< substrate protein remaining % ≤100%)

SMILES: O=C1CCN(N2C(=O)c3ccc(CN4CCN(c5nccc(Cl)c5Br)CC4)cc3C2=O)C(=O)N1 [GT-07291, 5-((4-(3-bromo-4-chloropyridin-2-yl)piperazin-1-yl)methyl)-2-(2,4-dioxotetrahydropyrimidin-1(2H)-yl)isoindoline-1,3-dione]
- WEE1 substrate protein remaining % (WEE1): A (0% ≤ substrate protein remaining % ≤80%)
- IKZF1 substrate protein remaining % (IKZF1): B (80%< substrate protein remaining % ≤100%)
- IKZF2 substrate protein remaining % (IKZF2): B (80%< substrate protein remaining % ≤100%)
- IKZF3 substrate protein remaining % (IKZF3): B (80%< substrate protein remaining % ≤100%)
- CK1α substrate protein remaining % (CK1α): B (80%< substrate protein remaining % ≤100%)
- GSPT1 substrate protein remaining % (GSPT1): A (0% ≤ substrate protein remaining % ≤80%)

SMILES: O=C1CCN(N2C(=O)c3ccc(CN4CCCN(C(c5ccccc5)c5ccccc5)CC4)cc3C2=O)C(=O)N1 [GT-07295, 5-((4-benzhydryl-1,4-diazepan-1-yl)methyl)-2-(2,4-dioxotetrahydropyrimidin-1(2H)-yl)isoindoline-1,3-dione]
- WEE1 substrate protein remaining % (WEE1): B (80%< substrate protein remaining % ≤100%)
- IKZF1 substrate protein remaining % (IKZF1): B (80%< substrate protein remaining % ≤100%)
- IKZF2 substrate protein remaining % (IKZF2): B (80%< substrate protein remaining % ≤100%)
- IKZF3 substrate protein remaining % (IKZF3): B (80%< substrate protein remaining % ≤100%)
- CK1α substrate protein remaining % (CK1α): B (80%< substrate protein remaining % ≤100%)
- GSPT1 substrate protein remaining % (GSPT1): A (0% ≤ substrate protein remaining % ≤80%)

SMILES: CC1(C)CCC(CN2CCN(Cc3ccc4c(c3)CN(N3CCC(=O)NC3=O)C4=O)C(C(F)(F)F)C2)=C(c2ccc(Cl)cc2)C1 (stereo not drawn) [GT-07296, 1-(5-((4-((4′-chloro-5,5-dimethyl-3,4,5,6-tetrahydro-[1,1′-biphenyl]-2-yl)methyl)-2-(trifluoromethyl)piperazin-1-yl)methyl)-1-oxoisoindolin-2-yl)dihydropyrimidine-2,4(1H,3H)-dione]
- WEE1 substrate protein remaining % (WEE1): A (0% ≤ substrate protein remaining % ≤80%)
- IKZF1 substrate protein remaining % (IKZF1): A (0% ≤ substrate protein remaining % ≤80%)
- IKZF2 substrate protein remaining % (IKZF2): B (80%< substrate protein remaining % ≤100%)
- IKZF3 substrate protein remaining % (IKZF3): B (80%< substrate protein remaining % ≤100%)
- CK1α substrate protein remaining % (CK1α): A (0% ≤ substrate protein remaining % ≤80%)
- GSPT1 substrate protein remaining % (GSPT1): A (0% ≤ substrate protein remaining % ≤80%)

SMILES: O=C1CCN(N2Cc3cc(CN4CCN(CC5=C(c6ccc(F)cc6)CCCC5)CC4)ccc3C2=O)C(=O)N1 [GT-07297, 1-(5-((4-((4′-fluoro-3,4,5,6-tetrahydro-[1,1′-biphenyl]-2-yl)methyl)piperazin-1-yl)methyl)-1-oxoisoindolin-2-yl)dihydropyrimidine-2,4(1H,3H)-dione]
- WEE1 substrate protein remaining % (WEE1): A (0% ≤ substrate protein remaining % ≤80%)
- IKZF1 substrate protein remaining % (IKZF1): B (80%< substrate protein remaining % ≤100%)
- IKZF2 substrate protein remaining % (IKZF2): A (0% ≤ substrate protein remaining % ≤80%)
- IKZF3 substrate protein remaining % (IKZF3): A (0% ≤ substrate protein remaining % ≤80%)
- CK1α substrate protein remaining % (CK1α): A (0% ≤ substrate protein remaining % ≤80%)
- GSPT1 substrate protein remaining % (GSPT1): A (0% ≤ substrate protein remaining % ≤80%)

SMILES: CC1(C)CCC(CN2CC3CCC2CN3Cc2ccc3c(c2)C(=O)N(N2CCC(=O)NC2=O)C3=O)=C(c2ccc(Cl)cc2)C1 (stereo not drawn) [GT-07300, 5-((5-((4′-chloro-5,5-dimethyl-3,4,5,6-tetrahydro-[1,1′-biphenyl]-2-yl)methyl)-2,5-diazabicyclo[2.2.2]octan-2-yl)methyl)-2-(2,4-dioxotetrahydropyrimidin-1(2H)-yl)isoindoline-1,3-dione]
- WEE1 substrate protein remaining % (WEE1): A (0% ≤ substrate protein remaining % ≤80%)
- IKZF1 substrate protein remaining % (IKZF1): B (80%< substrate protein remaining % ≤100%)
- IKZF2 substrate protein remaining % (IKZF2): B (80%< substrate protein remaining % ≤100%)
- IKZF3 substrate protein remaining % (IKZF3): B (80%< substrate protein remaining % ≤100%)
- CK1α substrate protein remaining % (CK1α): B (80%< substrate protein remaining % ≤100%)
- GSPT1 substrate protein remaining % (GSPT1): B (80%< substrate protein remaining % ≤100%)

SMILES: CC1(C)CCC(CN2CCN(Cc3ccc4c(c3)C(=O)N(N3CCC(=O)NC3=O)C4=O)C(C(F)(F)F)C2)=C(c2ccc(Cl)cc2)C1 (stereo not drawn) [GT-07301, 5-((4-((4′-chloro-5,5-dimethyl-3,4,5,6-tetrahydro-[1,1′-biphenyl]-2-yl)methyl)-2-(trifluoromethyl)piperazin-1-yl)methyl)-2-(2,4-dioxotetrahydropyrimidin-1(2H)-yl)isoindoline-1,3-dione]
- WEE1 substrate protein remaining % (WEE1): B (80%< substrate protein remaining % ≤100%)
- IKZF1 substrate protein remaining % (IKZF1): B (80%< substrate protein remaining % ≤100%)
- IKZF2 substrate protein remaining % (IKZF2): B (80%< substrate protein remaining % ≤100%)
- IKZF3 substrate protein remaining % (IKZF3): B (80%< substrate protein remaining % ≤100%)
- CK1α substrate protein remaining % (CK1α): B (80%< substrate protein remaining % ≤100%)
- GSPT1 substrate protein remaining % (GSPT1): A (0% ≤ substrate protein remaining % ≤80%)

SMILES: O=C1CCN(N2C(=O)c3ccc(CN4CCN(CC5=C(c6ccc(F)cc6)CCCC5)CC4)cc3C2=O)C(=O)N1 [GT-07302, 2-(2,4-dioxotetrahydropyrimidin-1(2H)-yl)-5-((4-((4′-fluoro-3,4,5,6-tetrahydro-[1,1′-biphenyl]-2-yl)methyl)piperazin-1-yl)methyl)isoindoline-1,3-dione]
- WEE1 substrate protein remaining % (WEE1): A (0% ≤ substrate protein remaining % ≤80%)
- IKZF1 substrate protein remaining % (IKZF1): B (80%< substrate protein remaining % ≤100%)
- IKZF2 substrate protein remaining % (IKZF2): B (80%< substrate protein remaining % ≤100%)
- IKZF3 substrate protein remaining % (IKZF3): B (80%< substrate protein remaining % ≤100%)
- CK1α substrate protein remaining % (CK1α): B (80%< substrate protein remaining % ≤100%)
- GSPT1 substrate protein remaining % (GSPT1): B (80%< substrate protein remaining % ≤100%)
